Molecular target: Cathepsin S (Homo sapiens, UniProt P25774)
Assay: Inhibition Assay: 5 μL of a human cathepsin S enzyme (R&D1183-CY-010) was added to a 96-well plate so as to be 20 ng/well. Next, 10-fold dilution of the test compound (a 10 mM DMSO solution) was serially performed with a buffer solution for assay (a solution of 50 mM sodium methoxide, 250 mM sodium chloride and 5 mM dithiothreitol (DTT), adjusted to pH=4.5 with 1 N hydrochloric acid) six times such that the final concentration becomes 0.1 nM to 10 μM then, 20 μL of each of the solutions was added to the wells (the final DMSO concentration was 0.1%), and 25 μL of synthetic substrate VVR-AMC (3211-V manufactured by PEPTIDE […], INC.) was added thereto such that the final concentration becomes 40 μM, thereby starting a enzyme reaction. A fluorescence intensity (an excitation wavelength: 380 nm and a fluorescent wavelength: 460 nm) was measured at 37° C. for 10 minutes immediately after the start of the reaction using a fluorescence spectrophotometer (SPECTRA MAX GEMINI, manu

Chain of Cathepsin S (P25774 whole entry): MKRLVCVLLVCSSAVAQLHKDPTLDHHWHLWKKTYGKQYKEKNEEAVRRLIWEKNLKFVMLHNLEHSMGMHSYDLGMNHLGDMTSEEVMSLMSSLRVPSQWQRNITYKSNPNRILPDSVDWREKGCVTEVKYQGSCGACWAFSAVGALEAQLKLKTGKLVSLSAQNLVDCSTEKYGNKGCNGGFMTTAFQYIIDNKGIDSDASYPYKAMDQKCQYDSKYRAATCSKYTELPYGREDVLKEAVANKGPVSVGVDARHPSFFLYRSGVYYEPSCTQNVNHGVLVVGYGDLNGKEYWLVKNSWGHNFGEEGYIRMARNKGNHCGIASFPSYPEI

| IC50 | SMILES |
| --- | --- |
| 2.9 nM | CCN1CCC(CCOc2ccc(-c3nc(C#N)nc4c3ccn4C3COC3)cc2C(F)(F)F)CC1 |
| 2.9 nM | CCOc1ccc(-c2nc(C#N)nc3c2ccn3CC(=O)NC2CCN(C)CC2)cc1C(F)(F)F |
| 1.9 nM | Cn1cnc2c(-c3cc(F)c(OCCC4CCNCC4)c(C(F)(F)F)c3)nc(C#N)nc21 |
| 4.5 nM | Cn1ccc2c(-c3ccc(OCC4CNC4)c(C(F)(F)F)c3)nc(C#N)nc21 |
| 3.1 nM | N#Cc1nc(-c2ccc(OCCC3CCN(CCO)CC3)c(C(F)(F)F)c2)c2ccn(CC3CCOC3)c2n1 (centres undefined) |
| 2.1 nM | CN1CCC[C@H]1C(=O)N1CC(COc2ccc(-c3nc(C#N)nc4c3ccn4C)cc2C(F)(F)F)C1 |
| 2.7 nM | CCN1CCC(CCOc2ccc(-c3nc(C#N)nc4c3ccn4CC3CCOC3)cc2C#N)CC1 (centres undefined) |
| 4.7 nM | CN1CCC[C@H]1C(=O)N1CCC(CCOc2ccc(-c3nc(C#N)nc4c3ccn4CC3CCOC3)cc2C(F)(F)F)CC1 (some centres undefined) |
| 3.1 nM | N#Cc1nc(-c2cnc(OCCC3CCNCC3)c(C(F)(F)F)c2)c2ccn(CC(=O)N3CCOCC3)c2n1 |
| 1.9 nM | CCN1CCC(CCOc2ncc(-c3nc(C#N)nc4c3ccn4C)cc2C(F)(F)F)CC1 |
| 3.1 nM | CCN1CC(COc2ccc(-c3nc(C#N)nc4c3ccn4C)cc2C(F)(F)F)C1 |
| 3.8 nM | CCN1CCC(C)(COc2ccc(-c3nc(C#N)nc4c3ccn4C)cc2C(F)(F)F)CC1 |
| 2.5 nM | N#Cc1nc(-c2ccc(OCCC3CCOCC3)c(C(F)(F)F)c2)c2ccn(CC(=O)N3CCC(CN4CCCC4)CC3)c2n1 |
| 3.5 nM | CN1CCC[C@H]1C(=O)N1CCC(CCOc2ccc(-c3nc(C#N)nc4c3ncn4C)cc2C(F)(F)F)CC1 |
| 2.3 nM | CN1CCC(C(=O)N2CCC(CCOc3ccc(-c4nc(C#N)nc5c4ncn5C)cc3C(F)(F)F)CC2)C1 (centres undefined) |
| 2.3 nM | CN1C[C@@H](O)C[C@H]1C(=O)N1CCC(CCOc2ccc(-c3nc(C#N)nc4c3ncn4C)cc2C(F)(F)F)CC1 |
| 3 nM | CCN1CCCC(COc2ccc(-c3nc(C#N)nc4c3ccn4C)cc2C(F)(F)F)C1 (centres undefined) |
| 2.1 nM | Cn1ccc2c(-c3cnc(OCC4CCN(C(=O)C5CCN(CC(C)(C)O)CC5)CC4)c(C(F)(F)F)c3)nc(C#N)nc21 |
| 3.1 nM | CN1CCC[C@H]1C(=O)N1CCC(CCOc2ncc(-c3nc(C#N)nc4c3ncn4C)cc2C(F)(F)F)CC1 |
| 2.4 nM | CCN1CCC(CCOc2ncc(-c3nc(C#N)nc4c3ccn4CC(=O)N3CCOCC3)cc2C(F)(F)F)CC1 |
| 1.6 nM | Cn1cnc2c(-c3ccc(OCCC4CCN(CC(=O)N5CCCC5)CC4)c(C(F)(F)F)c3)nc(C#N)nc21 |
| 2 nM | CCN1CCC(OCCOc2ccc(-c3nc(C#N)nc4c3ccn4C)cc2C(F)(F)F)CC1 |
| 2.3 nM | CN1CCC[C@H]1C(=O)N1CCC(CCOc2ccc(-c3nc(C#N)nc4c3ccn4C)cc2C(F)(F)F)C1 (some centres undefined) |
| 2 nM | CCN1CCC(CCOc2ccc(-c3nc(C#N)nc4c3ccn4CC(N)=O)cc2C(F)(F)F)CC1 |
| 3.4 nM | N#Cc1nc(-c2cnc(OCCC3CCNCC3)c(C(F)(F)F)c2)c2ccn(CC3CCOC3)c2n1 (centres undefined) |
| 1 nM | CCN1CCC(CCOc2ncc(-c3nc(C#N)nc4c3ncn4C)cc2C(F)(F)F)CC1 |

| IC50 | SMILES |
| --- | --- |
| 3.3 nM | CN1CCC[C@H]1C(=O)N1CCC(CCOc2ccc(-c3nc(C#N)nc4c3ccn4C3COC3)cc2C(F)(F)F)CC1 |
| 2.4 nM | Cn1cnc2c(-c3ccc(OCCC4CCN(CC(=O)N5CCC(F)(F)C5)CC4)c(C(F)(F)F)c3)nc(C#N)nc21 |
| 7.8 nM | CN1CCC[C@H]1C(=O)N1CCC(CCOc2ccc(-c3nc(C#N)nc4c3ccn4CC3CCOC3)cc2C#N)CC1 (some centres undefined) |
| 4.8 nM | CN1CCC[C@H]1C(=O)N1CCC(CCOc2ncc(-c3nc(C#N)nc4c3ccn4C)cc2C(F)(F)F)CC1 |
| 2.1 nM | CC(C)N1CCC[C@H]1C(=O)N1CCC(CCOc2ncc(-c3nc(C#N)nc4c3ncn4C)cc2C(F)(F)F)CC1 |
| 3.6 nM | CN1CCC[C@H]1C(=O)N1CCCC(COc2ccc(-c3nc(C#N)nc4c3ccn4C)cc2C(F)(F)F)C1 (some centres undefined) |
| 2.2 nM | CN(C)C(=O)CN1CCC(CCOc2ncc(-c3nc(C#N)nc4c3ccn4C)cc2C(F)(F)F)CC1 |
| 2.8 nM | CCN1CCC(COc2ccc(-c3nc(C#N)nc4c3ccn4CC3CCOC3)cc2C(F)(F)F)CC1 (centres undefined) |
| 3.9 nM | CCN1CCC(CCOc2ccc(-c3nc(C#N)nc4c3ccn4CC3CCOC3)cc2C(F)(F)F)CC1 (centres undefined) |
| 3.6 nM | Cn1ccc2c(-c3ccc(OCC4(C)CCNCC4)c(C(F)(F)F)c3)nc(C#N)nc21 |
| 3.3 nM | N#Cc1nc(-c2ccc(OCCC3CCNCC3)c(C#N)c2)c2ccn(CC3CCOC3)c2n1 (centres undefined) |
| 6.1 nM | Cn1cnc2c(-c3ccc(OCCC4CCN(C(=O)CO)CC4)c(C(F)(F)F)c3)nc(C#N)nc21 |
| 1.3 nM | Cn1ccc2c(-c3ccc(OCCC4CCNC4)c(C(F)(F)F)c3)nc(C#N)nc21 (centres undefined) |
| 1.7 nM | Cn1cnc2c(-c3ccc(OCCC4CCNCC4)c(C(F)(F)F)c3)nc(C#N)nc21 |
| 2.1 nM | Cn1ccc2c(-c3ccc(OCCOC4CCNCC4)c(C(F)(F)F)c3)nc(C#N)nc21 |
| 2.2 nM | CCN1CCC(CCOc2ccc(-c3nc(C#N)nc4c3ncn4CC3CCOC3)cc2C(F)(F)F)CC1 (centres undefined) |
| 2.3 nM | Cc1nnc(CN2CCC(CCOc3ccc(-c4nc(C#N)nc5c4ncn5C)cc3C(F)(F)F)CC2)o1 |
| 1.4 nM | CN1CCC[C@H]1C(=O)N1CCC(CCOc2ncc(-c3nc(C#N)nc4c3ncn4CC3CCOC3)cc2C(F)(F)F)CC1 (some centres undefined) |
| 4.3 nM | CC(C)N1CCC(CCOc2ccc(-c3nc(C#N)nc4c3ccn4CC3CCOC3)cc2C#N)CC1 (centres undefined) |
| 1.9 nM | N#Cc1nc(-c2ccc(OCC3CCNCC3)c(C(F)(F)F)c2)c2ccn(CC3CCOC3)c2n1 (centres undefined) |
| 2.9 nM | CN(C)C(=O)CN1CCC(CCOc2ccc(-c3nc(C#N)nc4c3ccn4CC3CCOC3)cc2C(F)(F)F)CC1 (centres undefined) |
| 0.76 nM | Cn1cnc2c(-c3ccc(OCCC4CCN(CCO)CC4)c(C(F)(F)F)c3)nc(C#N)nc21 |
| 1.9 nM | CN(C)C(=O)CN1CCC(CCOc2ccc(-c3nc(C#N)nc4c3ccn4CCO)cc2C(F)(F)F)CC1 |
| 3.1 nM | Cn1ccc2c(-c3ccc(OCC4CCCNC4)c(C(F)(F)F)c3)nc(C#N)nc21 (centres undefined) |
| 2.7 nM | CN1CCC(C(=O)N2CCC(CCOc3ccc(-c4nc(C#N)nc5c4ncn5C)cc3C(F)(F)F)CC2)CC1 |
| 2.3 nM | CCN1CCC(CCOc2ccc(-c3nc(C#N)nc4c3ccn4CCO)cc2C(F)(F)F)CC1 |

| IC50 | SMILES |
| --- | --- |
| 2.6 nM | N#Cc1nc(-c2ccc(OCCC3CCNCC3)c(C(F)(F)F)c2)c2ccn(CC3CCCO3)c2n1 (centres undefined) |
| 3.2 nM | CCN1CCC(CCOc2ncc(-c3nc(C#N)nc4c3ccn4CC3CCOCC3)cc2C(F)(F)F)CC1 |
| 2 nM | Cn1ccc2c(-c3ccc(OCCC4CCN(C(C)(C)C)CC4)c(C(F)(F)F)c3)nc(C#N)nc21 |
| 2.7 nM | Cn1cnc2c(-c3ccc(OCCC4CCN(CC#N)CC4)c(C(F)(F)F)c3)nc(C#N)nc21 |
| 1.4 nM | Cn1cnc2c(-c3cnc(OCCC4CCNCC4)c(C(F)(F)F)c3)nc(C#N)nc21 |
| 2.8 nM | N#Cc1nc(-c2ccc(OCCC3CCNCC3)c(C(F)(F)F)c2)c2ccn(C3CCOC3)c2n1 (centres undefined) |
| 3.5 nM | N#Cc1nc(-c2cnc(OCCC3CCNCC3)c(C(F)(F)F)c2)c2ccn(CC3CCOCC3)c2n1 |
| 2.7 nM | Cn1ccc2c(-c3cnc(OCCC4CCCNC4)c(C(F)(F)F)c3)nc(C#N)nc21 (centres undefined) |
| 2.5 nM | Cn1ccc2c(-c3cnc(OCCC4CCNCC4)c(C(F)(F)F)c3)nc(C#N)nc21 |
| 1.7 nM | Cn1cnc2c(-c3ccc(OCCC4CCN(CC(=O)N5CC[C@H](F)C5)CC4)c(C(F)(F)F)c3)nc(C#N)nc21 |
| 2.2 nM | CN1CCC(N(C)C(=O)Cn2ccc3c(-c4ccc(OCCC5CCOCC5)c(C(F)(F)F)c4)nc(C#N)nc32)C1 (centres undefined) |
| 3.7 nM | CCN1CCC(CCOc2ccc(-c3nc(C#N)nc4c3ccn4CC)cc2C(F)(F)F)CC1 |
| 2 nM | CCN1CCC(CCOc2ncc(-c3nc(C#N)nc4c3ncn4CC3CCOC3)cc2C(F)(F)F)CC1 (centres undefined) |
| 2 nM | Cn1cnc2c(-c3cnc(OCCC4CCN(C5CCC5)CC4)c(C(F)(F)F)c3)nc(C#N)nc21 |
| 2.1 nM | CCN1CCC(CCOc2ccc(-c3nc(C#N)nc4c3ccn4C)cc2C(F)(F)F)C1 (centres undefined) |
| 2.1 nM | Cn1cnc2c(-c3ccc(OCCC4CCN(CC(=O)N5CCC(C#N)CC5)CC4)c(C(F)(F)F)c3)nc(C#N)nc21 |
| 4 nM | CN(C)C(=O)CN1CCCC(COc2ccc(-c3nc(C#N)nc4c3ccn4C)cc2C(F)(F)F)C1 (centres undefined) |
| 1.2 nM | CCN1CCC(CCOc2ccc(-c3nc(C#N)nc4c3ncn4C)cc2C(F)(F)F)CC1 |
| 8.9 nM | Cn1cnc2c(-c3ccc(OCC(=O)N4CCNCC4)c(C(F)(F)F)c3)nc(C#N)nc21 |
| 2.2 nM | N#Cc1nc(-c2ccc(OCCC3CCNCC3)c(C(F)(F)F)c2)c2cc[nH]c2n1 |
| 1.9 nM | N#Cc1nc(-c2ccc(OCCC3CCNCC3)c(C(F)(F)F)c2)c2ccn(CC3CCOC3)c2n1 (centres undefined) |
| 2.2 nM | CN1CCC[C@H]1C(=O)N1CCC(COc2ccc(-c3nc(C#N)nc4c3ccn4CC3CCOC3)cc2C(F)(F)F)CC1 (some centres undefined) |
| 3.2 nM | N#Cc1nc(-c2ccc(OCCC3CCN(CCO)CC3)c(C(F)(F)F)c2)c2ccn(CC3CCCO3)c2n1 (centres undefined) |
| 1 nM | CN1CCC[C@@H]1C(=O)N1CCC(CCOc2ncc(-c3nc(C#N)nc4c3ncn4C)cc2C(F)(F)F)CC1 |

| SMILES | IC50 |
| --- | --- |
| Cn1c(C(F)(F)F)nc2c(-c3cnc(OCCC4CCNCC4)c(C(F)(F)F)c3)nc(C#N)nc21 | 3.3 nM |
| CCN1CCN(C(=O)COc2ccc(-c3nc(C#N)nc4c3ncn4C)cc2C(F)(F)F)CC1 | 2.6 nM |
| Cn1ccc2c(-c3ccc(SCCC4CCNCC4)c(C(F)(F)F)c3)nc(C#N)nc21 | 1.7 nM |
| Cn1ccc2c(-c3ccc(OCCC4CC5CCC(C4)N5)c(C(F)(F)F)c3)nc(C#N)nc21 (centres undefined) | 3.6 nM |
| N#Cc1nc(-c2ccc(OCCC3CCN(C(CF)CF)CC3)c(C#N)c2)c2ccn(CC3CCOC3)c2n1 (centres undefined) | 8.9 nM |
| N#Cc1nc(-c2ccc(OCCC3CCNCC3)c(C(F)(F)F)c2)c2ccn(C3CCOCC3)c2n1 | 2.6 nM |
| CCN1CCC(CCOc2ncc(-c3nc(C#N)nc4c3ccn4CC3CCOC3)cc2C(F)(F)F)CC1 (centres undefined) | 2.6 nM |
| CCn1ccc2c(-c3ccc(OCCC4CCNCC4)c(C(F)(F)F)c3)nc(C#N)nc21 | 3 nM |
